Source: the NIST ThermoML archive (doi:10.1016/j.fluid.2019.05.003)

Assay: xn = mol fraction of the nth substance listed
Details: 101 kPa, Liquid; for viscosity: Falling or rolling sphere viscometry; for mass density: Vibrating tube method

OCC[n+]1ccccc1.[Br-] [1-(2-hydroxyethyl)pyridinium bromide] + O
Details | mass density [kg/m3] | viscosity [mPa·s]
298.15 K, x1 = 0.022 | 1071.4 | 1.138
298.15 K, x1 = 0.045 | 1131.4 | 1.415
298.15 K, x1 = 0.066 | 1177.3 | 1.761
298.15 K, x1 = 0.085 | 1211 | 2.174
298.15 K, x1 = 0.114 | 1256.4 | 2.918
298.15 K, x1 = 0.152 | 1296.4 | 4.134
298.15 K, x1 = 0.195 | 1334.4 | 6.391
298.15 K, x1 = 0.226 | 1356.7 | 8.964
298.15 K, x1 = 0.261 | 1377.5 | 11.93
303.15 K, x1 = 0.022 | 1069.5 | 1.04
303.15 K, x1 = 0.045 | 1129.2 | 1.268
303.15 K, x1 = 0.066 | 1174.8 | 1.576
303.15 K, x1 = 0.085 | 1208.3 | 1.937
303.15 K, x1 = 0.114 | 1251.9 | 2.577
303.15 K, x1 = 0.152 | 1293.5 | 3.62
303.15 K, x1 = 0.195 | 1331.4 | 5.528
303.15 K, x1 = 0.226 | 1353.6 | 7.799
303.15 K, x1 = 0.261 | 1374.3 | 10.25
308.15 K, x1 = 0.022 | 1067.5 | 0.947
308.15 K, x1 = 0.045 | 1126.8 | 1.148
308.15 K, x1 = 0.066 | 1172.2 | 1.424
308.15 K, x1 = 0.085 | 1205.7 | 1.744
308.15 K, x1 = 0.114 | 1247.7 | 2.309
308.15 K, x1 = 0.152 | 1290.5 | 3.233
308.15 K, x1 = 0.195 | 1328.4 | 4.908
308.15 K, x1 = 0.226 | 1350.4 | 6.784
308.15 K, x1 = 0.261 | 1371.2 | 8.888
313.15 K, x1 = 0.022 | 1065.2 | 0.867
313.15 K, x1 = 0.045 | 1124.3 | 1.046
313.15 K, x1 = 0.066 | 1169.6 | 1.294
313.15 K, x1 = 0.085 | 1202.9 | 1.581
313.15 K, x1 = 0.114 | 1244.9 | 2.082
313.15 K, x1 = 0.152 | 1287.5 | 2.894
313.15 K, x1 = 0.195 | 1325.3 | 4.33
313.15 K, x1 = 0.226 | 1347.3 | 5.9
313.15 K, x1 = 0.261 | 1368 | 7.704
318.15 K, x1 = 0.022 | 1062.7 | 0.8
318.15 K, x1 = 0.045 | 1121.8 | 0.96
318.15 K, x1 = 0.066 | 1166.9 | 1.184
318.15 K, x1 = 0.085 | 1200.1 | 1.44
318.15 K, x1 = 0.114 | 1241.9 | 1.887
318.15 K, x1 = 0.152 | 1284.5 | 2.604
318.15 K, x1 = 0.195 | 1322.2 | 3.868
318.15 K, x1 = 0.226 | 1344.2 | 5.148
318.15 K, x1 = 0.261 | 1364.8 | 6.721
323.15 K, x1 = 0.022 | 1060.2 | 0.741
323.15 K, x1 = 0.045 | 1119.1 | 0.886
323.15 K, x1 = 0.066 | 1164.1 | 1.086
323.15 K, x1 = 0.085 | 1197.2 | 1.32
323.15 K, x1 = 0.114 | 1238.9 | 1.721
323.15 K, x1 = 0.152 | 1281.4 | 2.36
323.15 K, x1 = 0.195 | 1319 | 3.478
323.15 K, x1 = 0.226 | 1341 | 4.527
323.15 K, x1 = 0.261 | 1361.6 | 5.895
328.15 K, x1 = 0.022 | 1057.8 | 0.692
328.15 K, x1 = 0.045 | 1116.2 | 0.82
328.15 K, x1 = 0.066 | 1161.1 | 1.008
328.15 K, x1 = 0.085 | 1194.2 | 1.215
328.15 K, x1 = 0.114 | 1235.9 | 1.578
328.15 K, x1 = 0.152 | 1278.3 | 2.149
328.15 K, x1 = 0.195 | 1315.9 | 3.137
328.15 K, x1 = 0.226 | 1337.8 | 4.03
328.15 K, x1 = 0.261 | 1358.4 | 5.207
333.15 K, x1 = 0.022 | 1055.5 | 0.645
333.15 K, x1 = 0.045 | 1113.1 | 0.766
333.15 K, x1 = 0.066 | 1158.1 | 0.933
333.15 K, x1 = 0.085 | 1191.2 | 1.126
333.15 K, x1 = 0.114 | 1232.8 | 1.451
333.15 K, x1 = 0.152 | 1275.2 | 1.969
333.15 K, x1 = 0.195 | 1312.7 | 2.833
333.15 K, x1 = 0.226 | 1334.6 | 3.615
333.15 K, x1 = 0.261 | 1355.2 | 4.632
338.15 K, x1 = 0.022 | 1053.3 | 0.608
338.15 K, x1 = 0.045 | 1111 | 0.716
338.15 K, x1 = 0.066 | 1155.7 | 0.869
338.15 K, x1 = 0.085 | 1187.8 | 1.045
338.15 K, x1 = 0.114 | 1229.7 | 1.344
338.15 K, x1 = 0.152 | 1272 | 1.809
338.15 K, x1 = 0.195 | 1309.5 | 2.599
338.15 K, x1 = 0.226 | 1331.4 | 3.284
338.15 K, x1 = 0.261 | 1352 | 4.101
343.15 K, x1 = 0.022 | 1051 | 0.571
343.15 K, x1 = 0.045 | 1108.4 | 0.674
343.15 K, x1 = 0.066 | 1153 | 0.816
343.15 K, x1 = 0.085 | 1184.6 | 0.976
343.15 K, x1 = 0.114 | 1226.5 | 1.257
343.15 K, x1 = 0.152 | 1268.8 | 1.696
343.15 K, x1 = 0.195 | 1306.3 | 2.37
343.15 K, x1 = 0.226 | 1328.2 | 2.945
343.15 K, x1 = 0.261 | 1348.7 | 3.732
348.15 K, x1 = 0.022 | 1048.8 | 0.538
348.15 K, x1 = 0.045 | 1105.8 | 0.634
348.15 K, x1 = 0.066 | 1150.3 | 0.763
348.15 K, x1 = 0.085 | 1181.8 | 0.911
348.15 K, x1 = 0.114 | 1223.1 | 1.197
348.15 K, x1 = 0.152 | 1265.5 | 1.605
348.15 K, x1 = 0.195 | 1303 | 2.228
348.15 K, x1 = 0.226 | 1324.9 | 2.693
348.15 K, x1 = 0.261 | 1345.5 | 3.372
